Source: patent US11241424B2, “Pharmaceutical formulations for sustained release of sebacoyl dinalbuphine ester” (LUMOSA THERAPEUTICS CO., LTD., priority 2015, dated 2022)
Several values for one entry are separate records, joined by “and”; a condition that tells them apart may be missing. Equal values may be shown once.

What was measured:
[1] = Plasma nalbuphine after subcutaneous nalbuphine in dogs; type: in vivo
[2] = after i.v. dosing in dogs; cited from earlier work
[3] = test system: postoperative pain following hemorrhoidectomy; experiment: Phase 2/3 clinical study of F8 formulation; type: in vivo, human
Experimental: The subjects were divided into two groups, of which Group 1 (n=103) was treated with a single dose of intramuscular SDE 150 mg (2 mL), and Group 2 (n=106) was treated with a single dose of intramuscular placebo (2 mL). All subjects were given a single dose of SDE or placebo via intramuscular injection 24±12 hours before hemorrhoid surgery. The subjects were allowed to take rescue medication and monitored for 7 days after dosing. Statistical analyses were performed on the data to compare the two groups.
The primary efficacy endpoint was pain assessment calculated as the area under the curve of VAS pain intensity scores through 48 hours after surgery. The secondary efficacy endpoints included pain assessment measured with VAS; time from the end of operation to the first rescue medication dosing; the consumption of oral ketorolac. Pain intensity was assessed right before the first use of PCA ketorolac, and at 1±0.1, 2±0.1, 3±0.1, 4±0.25, 8±0.5, 12±0.5, 16±0.5, 20±0.5, 24±1, 28±1, 32±2, 36±2, 40±2, 44±2, 48±2 hours after the surgery, and was assessed during Days 3-7 in the morning and evening, as well as during special events such as bowel movements.
For the calculation of AUC, data were imputed with the use of the windowed worst observation carried forward plus last observation carried forward method. For subjects who used rescue medication for pain relief, their VAS scores recorded within the window of ketorolac medication (6 hours, which is one half-life of ketorolac) were replaced by the “worst” observation (i.e., the highest score before taking ketorolac), hereafter called “adjusted VAS scores.”
The AUC0-24 and AUC0-48 of the mean adjusted VAS scores of SDE and placebo groups were calculated by using the trapezoidal method and summarized in Table 10.

[4] = Phase I clinical trial of F8 formulation (safety, tolerability, pharmacokinetics); details: for AUC0-inf / AUC0-t / Cmax / T1/2 / Tmax: plasma nalbuphine, mean
Experimental: It was designed to evaluate safety and local tolerability and assess the pharmacokinetics of SDE following single dose intramuscular injection. The study enrolled a total of 28 healthy male subjects. All subjects were randomized to 5 cohorts. Cohort 1 (N=4) was treated with single dose Nubain® 17 mg (0.85 mL) via intramuscular injection. Cohorts 2-5 (N=6) were either treated with placebo (N=2) or treated with single dose SDE (N=4) at 75 mg (1 mL), 100 mg (1.33 mL), 125 mg (1.67 mL), and 150 mg (2 mL), respectively.
Heparinized blood samples were obtained before and at various time points following single dose administration of study medication. […] The subsequent analysis of the data involved non-compartmental pharmacokinetics analysis, i.e., Cmax, Tmax, AUC0-t, AUC0-inf, and T1/2.

[5] = Bioavailability study of F8 formulation and Bain (whole blood nalbuphine); type: in vivo, human; details: mean, SDE 150 mg single IM as F8 formulation
Experimental: A total of twelve subjects completed the crossover study. […] There was a minimum 5-day washout period between period I and period II. In period I, the blood samples were drawn prior to the dosing, and 0.083, 0.25, 0.5, 1, 1.5, 2, 3, 4, 6, 8, 12, and 24 hours after dosing.

[6] = Solubility test of SDE in solvents and solvent systems (UPLC); type: physicochemical
Experimental: As used herein, the term “solubility” means the maximum amount of a solute (e.g., an active ingredient or a prodrug thereof) that can be dissolved in a given amount of a solvent at a particular temperature. Unless otherwise specified, the solubilities presented herein are at room temperature (e.g., 25-28° C.). The term “saturated concentration” refers to the concentration at which no more of a solute will dissolve in a solvent and additional amounts of solute will appear as a separate phase (e.g., as a precipitate).
Each of the solvent systems was prepared by mixing each component with the exact volume (pi) corresponding to the w/w % listed in Table 15. About 500 μl of each of the solvent systems was prepared and was vortexed for 3 minutes or more to fully mix each component. An appropriate amount of SDE was added into 250 μl of each of the solvent systems and the resulting mixtures were sonicated for 10 minutes. If the previously added SDE was completely dissolved, an additional 4-8 mg of SDE was added into the mixture and which was then sonicated for another 10 minutes. The step of adding 4-8 mg of SDE was repeated until the mixture was saturated to show undissolved SDE precipitates. All of the mixtures were sonicated for at least 30 minutes, and then centrifuged to collect the supernatants. The supernatants were treated with acetonitrile and then subjected to UPLC analysis.
Five groups of solvent systems containing 40% by weight of sesame oil were respectively prepared according to the method of Example 6 by using the compositions as listed in Table 17; and among them, five different alcohols (i.e., ethanol, 1-propanol, 2-propanol, 1-butanol, and tert-butanol) were used in the five groups. SDE was dissolved in each of the solvent systems till saturation by following the method of Example 6. The SDE concentrations in the supernatants collected from each of the samples (i.e. the saturated SDE concentration, or SDE solubility) were respectively determined by UPLC using the method of Example 6.

[7] = dog, plasma, subcutaneous, 0.5 mg/kg
[8] = 48 hours post-operation, SDE 150 mg IM (F8)
[9] = mITT, SDE 150 mg IM (F8) 24±12 hours before hemorrhoid surgery
[10] = SDE 75 mg single IM as F8 formulation
[11] = SDE 100 mg single IM as F8 formulation
[12] = SDE 125 mg single IM as F8 formulation
[13] = SDE 150 mg single IM as F8 formulation

SMILES: Oc1ccc2c3c1O[C@H]1[C@@H](O)CC[C@@]4(O)[C@@H](C2)N(CC2CCC2)CC[C@]314 [nalbuphine]
- concentration at 3 h [1, 7]: 9.9 ng/mL
- concentration at 4 h [1, 7]: 5.2 ng/mL
- effective plasma concentration of nalbuphine for analgesia in dog ([1]; inferred from 4 h plasma level and reported 4 h analgesia): about 5 ng/mL
- elimination half-life of nalbuphine [2]: about 1.2 hour

SMILES: O=C(CCCCCCCCC(=O)Oc1ccc2c3c1O[C@H]1[C@@H](O)CC[C@@]4(O)[C@@H](C2)N(CC2CCC2)CC[C@]314)Oc1ccc2c3c1O[C@H]1[C@@H](O)CC[C@@]4(O)[C@@H](C2)N(CC2CCC2)CC[C@]314 [SDE, sebacoyl dinalbuphine ester]
- AUC0-final of adjusted VAS scores, Mean ± SD ([3]; 0 hr to 7 days after hemorrhoid operation, mITT, SDE 150 mg IM (F8)): 630.79±350.90
- consumption of oral ketorolac, Mean [3, 8]: 51.36 mg
- consumption of oral ketorolac, Median [3, 8]: 40.00 mg
- time for the first use of post-operational analgesic, Mean (SD) ([3]; mITT, SDE 150 mg IM (F8)): 12.57 hour and 12.57 (1.68) hour
- AUC0-24 of adjusted VAS pain intensity scores, Mean ± SD [3, 9]: 109.42 ± 55.04
- AUC0-48 of adjusted VAS pain intensity scores, Mean ± SD [3, 9]: 209.93±111.26
- adjusted VAS score compared with placebo ([3]; throughout the 7 days after the hemorrhoid operation): lower than the placebo group
- duration of action ([4]; cohort receiving 125 mg SDE, from plasma nalbuphine above 3 ng/mL): about 6.5 days
- duration of action ([4]; cohort receiving 150 mg SDE, from plasma nalbuphine above 3 or 1 ng/mL): 6 to 12 days
- tolerability ([4]; escalating single IM doses of SDE up to 150 mg): well tolerated
- AUC0-inf [4, 10]: 692.27 ng·h/mL
- AUC0-t [4, 10]: 647.84 ng·h/mL
- Cmax [4, 10]: 5.45 ng/mL
- T1/2 [4, 10]: 55.75 h
- Tmax [4, 10]: 66 h
- AUC0-inf [4, 11]: 936.17 ng·h/mL
- AUC0-t [4, 11]: 811.34 ng·h/mL
- Cmax [4, 11]: 5.65 ng/mL
- T1/2 [4, 11]: 85.45 h
- Tmax [4, 11]: 66 h
- AUC0-inf [4, 12]: 1219.71 ng·h/mL
- AUC0-t [4, 12]: 1047.45 ng·h/mL
- Cmax [4, 12]: 7.31 ng/mL
- T1/2 [4, 12]: 89.83 h
- Tmax [4, 12]: 45 h
- AUC0-inf [4, 13]: 1353.16 ng·h/mL
- AUC0-t [4, 13]: 1214.98 ng·h/mL
- Cmax [4, 13]: 9.81 ng/mL
- T1/2 [4, 13]: 73.4 h
- Tmax [4, 13]: 60 h
- difference between SDE and placebo groups in number of AEs, subjects with AEs, severity and relatedness ([4]; single IM dose 75-150 mg): No significant difference
- severity of adverse events (AEs) ([4]; single IM dose, healthy male subjects): mild
- AUC0-inf [5]: 1832.0 ng·h/mL
- AUC0-t [5]: 1687.4 ng·h/mL
- Cmax [5]: 15.40 ng/mL
- MRT [5]: 149.38 h
- T1/2 [5]: 83.16 h
- Tmax [5]: 64.00 h
- effect of C2-C4 alcohol on the solubility of SDE (FIG. 11) ([6]; 2.5-30% by weight of the alcohol in solvent system with 40% sesame oil): significantly increased
- solubility of SDE in the formulations ([6]; 10% by weight of tert-Butanol replacing benzyl benzoate): about 210 mg/mL
- increase of the solubility of SDE in the solvent systems ([6]; 10% of alkyl alcohol added): at least 30%
- Solubility of SDE in the solvent ([6]; castor oil): about 13 mg/mL
- Solubility of SDE in the solvent ([6]; cottonseed oil): about 6 mg/mL
- solubility of SDE in ethanol, 1-propanol, or t-butanol ([6]; each alcohol alone): 10000 to 30000 µg/mL
- solubility of SDE when added to the mixture of benzyl benzoate and sesame oil ([6]; weight ratio of benzyl benzoate to sesame oil about 1.1): about 70 mg/mL
- solubility of SDE when added to the mixture of benzyl benzoate and sesame oil ([6]; weight ratio of benzyl benzoate to sesame oil about 1.5): about 150 mg/mL
- solubility of SDE when added to the mixture of benzyl benzoate and sesame oil ([6]; weight ratio of benzyl benzoate to sesame oil about 2.3): about 200 mg/mL
- solubility of SDE when added to the mixture of benzyl benzoate and sesame oil ([6]; weight ratio of benzyl benzoate to sesame oil about 9): greater than 300 mg/mL
- solubility of SDE in the formulations ([6]; without alkyl alcohol): about 160 mg/mL
